According to patent publication US20030157553A1, “Methods of assaying for G protein-coupled receptor ligands and modulators” (priority 2000, published 2003):

Tests used:
[1] = tested on: β2AR; assay: Direct binding assay of in vitro translated tritiated arrestins to purified β2AR reconstituted into phospholipid vesicles; conditions: activated by 0.1 mM agonist isoproterenol, FIG. 1A; for binding to activated unphosphorylated receptor: unphosphorylated β2AR
Excerpt: Mutagenesis and Biochemical Characterization of β-Arrestins—Mutations Arg169→Glu (CGG→GAG), Gln394→Ter (CAA→TAA), and Asp383→Ter (GAT→TAG) were introduced by polymerase chain reaction in β-arrestin construct pBARR (Gurevich et al. (1995) J. Biol. Chem. 270:720-731), that was used for in vitro transcription and translation, as described (Gurevich et al. (1995), supra). NcoI/HindIII 1404-base pair open reading frame was then subdloned into appropriately digested Escherichia coliexpression vector pTrcHisB (Invitrogen). All β-arrestin species were expressed in the in vitro translation system and tested in the direct binding assay (Gurevich et al. (1995), supra), overexpressed in E. coli, purified to apparent homogeneity (Gray-Keller et al. (1997) Biochemistry 36:7058-7063), and characterized in the agonist affinity shift assay (Gurevich et al. (1997) J. Biol Chem. 272:28849-28852), essentially as described.
Direct Binding Assay—In vitro translated tritiated arrestins (50 fmol) were incubated in 50 mM Tris-HCl, pH 7.5, 0.5 mM MgCl2, 1.5 mM dithiothreitol, 50 mM potassium acetate with 7.5 pmol of the various functional forms of rhodopsin or with P-β2AR or β2AR (100 fmol/assay) in a final volume of 50 μl for 5 min at 37° C. in room light (rhodopsin) or for 60 min at 30° C. in the presence of 0.1 mM -agonist isoproterenol. The samples were immediately cooled on ice and loaded onto 2 ml Sepharose 2B columns equilibrated with 20 mM Tris-HCl, pH 7.5, 2 mM EDTA. Bound arrestin eluted with receptor-containing membranes in the void volume (between 0.5 and 1.1 ml). Nonspecific binding determined in the presence of 0.3 μg of liposomes was subtracted.

[2] = tested on: β2AR; assay: Agonist affinity shift assay ([125I] iodopindolol), formation of high agonist affinity complex (HAC); type: binding; conditions: 1 μM arrestin, FIG. 2A
Excerpt: Mutagenesis and Biochemical Characterization of β-Arrestins—Mutations Arg169→Glu (CGG→GAG), Gln394→Ter (CAA→TAA), and Asp383→Ter (GAT→TAG) were introduced by polymerase chain reaction in β-arrestin construct pBARR (Gurevich et al. (1995) J. Biol. Chem. 270:720-731), that was used for in vitro transcription and translation, as described (Gurevich et al. (1995), supra). NcoI/HindIII 1404-base pair open reading frame was then subdloned into appropriately digested Escherichia coliexpression vector pTrcHisB (Invitrogen). […]
Agonist Affinity ShiftAssay—P-β2AR or β2AR (10-15 fmol/assay) was incubated in 0.25 ml of 10 mM Tris-HCl, pH 7.4, 100 mM NaCl (buffer A) containing 0.1 mg/ml bovine serum albumin in the presence of 65-75 fmol of [^125I] iodopindolol (NEN Life Science Products) and the indicated concentrations of arrestins and agonists for 60 min at 22° C. […] Receptor-containing liposomes with bound radioligand were eluted with buffer A (between 0.6 and 1.5 ml), and radioactivity was quantitated in a liquid scintillation counter. Nonspecific binding was determined in the presence of 10 μM alprenolol. […]

Row | binding to activated unphosphorylated receptor [1] | binding to activated and phosphorylated β2AR ([1]; phosphorylated β2AR (P-β2AR)) | Substance | percentage of HAC formed by unphosphorylated β2AR [2]
1 | bind poorly | – | β-arrestin-(1-393): bovine β-arrestin mutant Gln394→Ter, part of the regulatory COOH terminus deleted | –
2 | bind poorly | readily bind | β-arrestin: wild type bovine β-arrestin, comparator for the mutants | –
3 | significantly higher binding | – | β-arrestin-(1-382): bovine β-arrestin mutant Asp383→Ter, truncated regulatory COOH terminus | 22±4%
